Among the test systems are NCI-H522; SN12C; SF-295; RPMI-8226; OVCAR-5; SK-MEL-2; HT-29; MCF7; SNB-19; SF-268; UACC-257; 786-0; HCT-116; MDA-N; HOP-92; MDA-MB-435; NCI-H23; OVCAR-8; EKVX; SNB-75.
What all share (test): NCI tumour cell line growth inhibition, 48 h

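Following 48 hours of exposure in 96-well plates, responses at five concentrations were used to interpolate endpoints linearly. GI50: concentration for 50% inhibition of growth.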 Calls of active or inactive are those of the source. Rule as the data show it: active = GI50 up to about 1.1 µM and inactive = higher.

As for `Cc1c(F)c(N)c2c(=O)cc(-c3ccc(NC(=O)C(N)CCCNC(=N)N)c(F)c3)oc2c1F` (stereo unspecified), the GI50 with NCI-H522 was 24.8 µM (inactive); in the assay with SN12C it was 17.1 µM (inactive); in the assay on SF-295, > 37.6 µM (inactive); in the assay on RPMI-8226 it was > 33.5 µM (inactive); in the assay on OVCAR-5, 0.299 µM (active); in the assay on SK-MEL-2, 23.4 µM (inactive). Also, the GI50 is > 71.8 µM (inactive) in the assay with HT-29; 0.0893 µM (active) in the assay with MCF7; 24.8 µM (inactive) with SNB-19; 32.7 µM (inactive) in the assay on SF-268; 0.262 µM (active) in the assay with UACC-257; 29 µM (inactive) with 786-0. Further, the GI50 in the assay on HCT-116 was 13.2 µM (inactive); in the assay with MDA-N, 32.1 µM (inactive); with HOP-92, 49.5 µM (inactive); in the assay on MDA-MB-435 it was 27.2 µM (inactive); in the assay with NCI-H23 it was 27.9 µM (inactive); with OVCAR-8 it was 32.1 µM (inactive). In addition, the GI50 with EKVX was 17.2 µM (inactive).
Consider `CCOC(=O)C1C/C(C)=C(/C)SCCCS1` (stereo unspecified), for which the GI50 in the assay with NCI-H522 was 13.5 µM (inactive); with SN12C, > 100 µM (inactive); in the assay with SF-295, > 100 µM (inactive); with RPMI-8226 it was 58.6 µM (inactive); in the assay with OVCAR-5, > 100 µM (inactive); in the assay on SK-MEL-2, > 100 µM (inactive). For the same compound, the GI50 with HT-29, in the assay with MCF7, in the assay on SNB-19, in the assay with SF-268, in the assay with UACC-257 and in the assay on 786-0 was > 100 µM (inactive) in each case. Also, the GI50 in the assay on HCT-116 is 50.2 µM (inactive); in the assay on MDA-N it was > 100 µM (inactive); in the assay on HOP-92 it was > 100 µM (inactive); in the assay on MDA-MB-435 it was > 100 µM (inactive); in the assay on NCI-H23 it was 80 µM (inactive); in the assay with OVCAR-8, > 100 µM (inactive). Further, the GI50 in the assay on EKVX was > 100 µM (inactive).
Turning to `COC(=O)CCc1ccc2c(c1)CC1(C2)Cc2ccc3c(c2C1)CCC3` (stereo unspecified), the GI50 was 59.2 µM (inactive) in the assay on NCI-H522; 80 µM (inactive) in the assay on SN12C; > 100 µM (inactive) in the assay on SF-295; 31.3 µM (inactive) in the assay with RPMI-8226; > 10 µM (inactive) in the assay with OVCAR-5; 70.3 µM (inactive) in the assay with HT-29. Besides, the GI50 with MCF7 is 59.6 µM (inactive); in the assay with SNB-19, > 100 µM (inactive); with SF-268, > 100 µM (inactive); in the assay with UACC-257, > 100 µM (inactive); with 786-0, 69.8 µM (inactive); in the assay with HCT-116, > 100 µM (inactive). Besides, the GI50 was 87.9 µM (inactive) in the assay on MDA-N; 54 µM (inactive) with HOP-92; > 100 µM (inactive) with SNB-75; 38.1 µM (inactive) in the assay with MDA-MB-435; 50.6 µM (inactive) in the assay with NCI-H23; 46.2 µM (inactive) in the assay with OVCAR-8. The GI50 in the assay with EKVX was > 100 µM (inactive).
As for `Cc1nn(-c2ccccc2)c2nc3c(c(C)nn3-c3ccccc3)c(-c3ccccc3Br)c12`, the GI50 with NCI-H522 is > 100 µM (inactive); in the assay with SN12C it was > 100 µM (inactive); with SF-295, 57.3 µM (inactive); in the assay with RPMI-8226, > 100 µM (inactive); with OVCAR-5 it was > 100 µM (inactive); in the assay with HT-29, > 100 µM (inactive). Besides, the GI50 with MCF7, in the assay with SNB-19, in the assay on SF-268, in the assay with UACC-257, in the assay on 786-0 and in the assay with HCT-116 was > 100 µM (inactive) each time. Moreover, the GI50 in the assay with MDA-N, in the assay with HOP-92, in the assay on SNB-75, in the assay on MDA-MB-435, in the assay with NCI-H23 and with OVCAR-8 was > 100 µM (inactive) each time. Besides, the GI50 in the assay on EKVX was > 100 µM (inactive).

The record behind these values is ChEMBL document CHEMBL1201862, “PubChem BioAssay data set” (2004).
